Measurements reported in patent EP0151577B1 (priority 1983, dated 1984).

System: souris
Test: Anticonvulsant activity, MES
Format: in vivo
Description: Activite anticonvulsivante (MES): % de protection Temps de sommeil au pentobarbital: WYATT, R.J., ZARKONE, V. […], K., DEMENT, W.C., SMYDER, F. and SJOERDSMA, A., Effects of 5-Hydroxytryptophan on the sleep of normal human subjects. Electroencephaly and Clinical Neurophysiology 30, 5051971.

O=C(O)C(Cc1c[nH]c2ccc(O)cc12)NCC1(O)OCC(O)C(O)C1O (stereo not drawn) [DF-5HTP, N-1-desoxyfructo-5-hydroxytryptophane]
Activité anticon-vulsivante MES % protection (100 mg/kg (ip), 15 min, Tableau 2): 0% | Activité anticon-vulsivante MES % protection (100 mg/kg (ip), 30 min): 0% | Activité anticon-vulsivante MES % protection (100 mg/kg (ip), 60 min): 0% | Activité anticon-vulsivante MES % protection (174 mg/kg (ip), 15 min): 20% | Activité anticon-vulsivante MES % protection (174 mg/kg (ip), 30 min): 20% | Activité anticon-vulsivante MES % protection (174 mg/kg (ip), 60 min): 0%
